Assay results published in US8987195B2 (priority 2012, dated 2015).
Like-named read-outs stand apart in the source and are kept apart here.

How the values were obtained:
HCV genotype 1b replicon = experiment: HCV replicon assay, genotype 1b replicon EC50; format: cell-based, Hepatitis C virus; settings: Hepatitis C virus, read-out: EC50 [gt-1b]
Summary of the method: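 Replicon cells (Neo^r, some luciferase:Neo^r fusion); G418 removed at plating; compound dilution series, 24-48 h. Readout: RNA by 32P-probe hybridization/protection or TaqMan, normalized to cyclophilin A RNA, or luciferase. EC50 vs DMSO control, 4-parameter fit.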

[1] = molecular target: HCV NS3/4A protease genotype 1b (Hepatitis C virus genotype 1b, UniProt P26663); experiment: HCV NS3/4A protease time-resolved fluorescence (TRF) assay, Ki against genotype 1b; format: biochemical
Summary of the method: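 Enzyme was pre-incubated 30 min with inhibitor in HEPES pH 7.5 buffer (150 mM NaCl, 15% glycerol, 10 mM DTT). Reaction ran 2.5 h at room temperature with 25 nM europium TRF peptide substrate, read at ex 340/em 615 nm. Enzyme levels: 0.2 nM (1b), 0.4 nM (A156T), 0.025 nM (3a). Ki came from four-parameter IC50 via IC50=Ki(1+[S]/KM).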

[2] = IC50 [gt-1b], NS3/4A protease TRF assay, genotype 1b enzyme 0.2 nM
[3] = IC50 [gt-1b] (nM), NS3/4A genotype 1b, enzyme 0.2 nM

| SMILES | EC50 (HCV genotype 1b replicon; HCV replicon, genotype 1b) [nM] | IC50 [1, 2] [nM] | EC50 (HCV genotype 1b replicon; genotype 1b replicon) [nM] | IC50 [1, 3] [nM] | further results |
| --- | --- | --- | --- | --- | --- |
| CC(C)OC(=O)N[C@H]1CCCCC/C=C\[C@@H]2C[C@@]2(C(=O)NS(=O)(=O)C2(C)CC2)NC(=O)[C@@H]2C[C@]3(CCc4c(c(C(F)(F)F)nc5ccc(Cl)cc45)O3)CN2C1=O [Example 385, propan-2-yl [(2R,6S,12Z,13aS,14aR,16aS)-9′-chloro-14a-{[(1-methylcyclopropyl)sulfonyl]carbamoyl}-5,16-dioxo-5′-(trifluoromethyl)-1,1′,2′,5,6,7,8,9,10,11,13a,14,14a,15,16,16a-hexadecahydrospiro[cyclopropa[e]pyrrolo[1,2-a][1,4]diazacyclopentadecine-2,3′-pyrano[2,3-c]quinolin]-6-yl]carbamate] | 6.79 | 0.017 | – | – | – |
| COc1ccc2nc(C3CCC3)c3c(c2c1)CC[C@]1(C[C@H]2C(=O)N[C@]4(C(=O)NS(=O)(=O)C5(C)CC5)C[C@H]4/C=C\CCCCC[C@H](NC(=O)OCC(C)C)C(=O)N2C1)O3 [Example 171, 2-methylpropyl [(2R,6S,12Z,13aS,14aR,16aS)-5′-cyclobutyl-9′-methoxy-14a-{[(1-methylcyclopropyl)sulfonyl]carbamoyl}-5,16-dioxo-1,1′,2′,5,6,7,8,9,10,11,13a,14,14a,15,16,16a-hexadecahydrospiro[cyclopropa[e]pyrrolo[1,2-a][1,4]diazacyclopentadecine-2,3′-pyrano[2,3-c]quinolin]-6-yl]carbamate] | – | – | 1.62 | 0.013 | – |
| COCC1(S(=O)(=O)NC(=O)[C@@]23C[C@H]2/C=C\CCCCC[C@H](NC(=O)OCC(C)C)C(=O)N2C[C@@]4(CCc5c(c(C(F)(F)F)nc6ccc(OC)cc56)O4)C[C@H]2C(=O)N3)CC1 [Example 473, 2-methylpropyl [(2R,6S,12Z,13aS,14aR,16aS)-9′-methoxy-14a-({[1-(methoxymethyl)cyclopropyl]sulfonyl}carbamoyl)-5,16-dioxo-5′-(trifluoromethyl)-1,1′,2′,5,6,7,8,9,10,11,13a,14,14a,15,16,16a-hexadecahydrospiro[cyclopropa[e]pyrrolo[1,2-a][1,4]diazacyclopentadecine-2,3′-pyrano[2,3-c]quinolin]-6-yl]carbamate] | 2.27 | 0.031 | – | – | – |
| Cc1nc2c(C(F)(F)F)cccc2c2c1O[C@]1(CC2)C[C@H]2C(=O)N[C@]3(C(=O)NS(=O)(=O)C4(C)CC4)C[C@H]3/C=C\CCCCC[C@H](NC(=O)OC(C)(C)C)C(=O)N2C1 [Example 44, tert-Butyl (1aR,3aS,3′R,9S,16aS,Z)-5′-methyl-1a-(1-methylcyclopropylsulfonylcarbamoyl)-3,8-dioxo-7′-(trifluoromethyl)-1a,1′,2,2′,3,3a,4,6,8,9,10,11,12,13,14,16a-hexadecahydro-1H-spiro[cyclopropa[e]pyrrolo[1,2-a][1,4]diazacyclopentadecine-5,3′-pyrano[2,3-c]quinoline]-9-ylcarbamate] | – | – | 1.6 | 0.104 | – |
| Cc1nc2cc(F)c(F)cc2c2c1O[C@]1(CC2)C[C@H]2C(=O)N[C@]3(C(=O)NS(=O)(=O)C4(C)CC4)C[C@H]3/C=C\CCCCC[C@H](NC(=O)OCC(C)(C)C)C(=O)N2C1 [Example 202, 2,2-dimethylpropyl [(2R,6S,12Z,13aS,14aR,16aS)-8′,9′-difluoro-5′-methyl-14a-{[(1-methylcyclopropyl)sulfonyl]carbamoyl}-5,16-dioxo-1,1′,2′,5,6,7,8,9,10,11,13a,14,14a,15,16,16a-hexadecahydrospiro[cyclopropa[e]pyrrolo[1,2-a][1,4]diazacyclopentadecine-2,3′-pyrano[2,3-c]quinolin]-6-yl]carbamate] | – | – | – | – | EC50 (HCV genotype 1b replicon; genotype 1b replicon, K+ salt): 1.43 nM; IC50 ([1]; IC50 [gt-1b] (nM), NS3/4A genotype 1b, enzyme 0.2 nM, K+ salt): 0.009 nM |
| Cc1nc2ccc(OC(F)(F)F)cc2c2c1O[C@]1(CC2)C[C@H]2C(=O)N[C@]3(C(=O)NS(=O)(=O)C4(C)CC4)C[C@H]3/C=C\CCCCC[C@H](NC(=O)OCC3CCCC3)C(=O)N2C1 [Example 146, cyclopentylmethyl [(2R,6S,12Z,13aS,14aR,16aS)-5′-methyl-14a-{[(1-methylcyclopropyl)sulfonyl]carbamoyl}-5,16-dioxo-9′-(trifluoromethoxy)-1,1′,2′,5,6,7,8,9,10,11,13a,14,14a,15,16,16a-hexadecahydrospiro[cyclopropa[e]pyrrolo[1,2-a][1,4]diazacyclopentadecine-2,3′-pyrano[2,3-c]quinolin]-6-yl]carbamate] | – | – | 11.8 | 0.03 | – |
| CC(C)(C)OC(=O)N[C@H]1CCCCC/C=C\[C@@H]2C[C@@]2(C(=O)NS(=O)(=O)C2(C)CC2)NC(=O)[C@@H]2C[C@]3(CCc4c(c(C(F)(F)F)nc5ccc(OCCN6CC(F)(F)C6)cc45)O3)CN2C1=O [Example 518, tert-butyl [(2R,6S,12Z,13aS,14aR,16aS)-9′-[2-(3,3-difluoroazetidin-1-yl)ethoxy]-14a-{[(1-methylcyclopropyl)sulfonyl]carbamoyl}-5,16-dioxo-5′-(trifluoromethyl)-1,1′,2′,5,6,7,8,9,10,11,13a,14,14a,15,16,16a-hexadecahydrospiro[cyclopropa[e]pyrrolo[1,2-a][1,4]diazacyclopentadecine-2,3′-pyrano[2,3-c]quinolin]-6-yl]carbamate] | 0.726 | 0.012 | – | – | – |
| Cc1nc2cc(F)ccc2c2c1O[C@]1(CC2)C[C@H]2C(=O)N[C@]3(C(=O)NS(=O)(=O)C4(C)CC4)C[C@H]3/C=C\CCCCC[C@H](NC(=O)OCC(C)C)C(=O)N2C1 [Example 340, 2-methylpropyl [(2R,6S,12Z,13aS,14aR,16aS)-8′-fluoro-5′-methyl-14a-{[(1-methylcyclopropyl)sulfonyl]carbamoyl}-5,16-dioxo-1,1′,2′,5,6,7,8,9,10,11,13a,14,14a,15,16,16a-hexadecahydrospiro[cyclopropa[e]pyrrolo[1,2-a][1,4]diazacyclopentadecine-2,3′-pyrano[2,3-c]quinolin]-6-yl]carbamate] | – | – | 3.23 | 0.03 | – |
| COc1ccc2c3c(c(C4CC4)nc2c1)O[C@]1(CC3)C[C@H]2C(=O)N[C@]3(C(=O)NS(=O)(=O)C4(C)CC4)C[C@H]3/C=C\CCCCC[C@H](NC(=O)Oc3ccc(C)cc3)C(=O)N2C1 [Example 274, 4-methylphenyl [(2R,6S,12Z,13aS,14aR,16aS)-5′-cyclopropyl-8′-methoxy-14a-{[(1-methylcyclopropyl)sulfonyl]carbamoyl}-5,16-dioxo-1,1′,2′,5,6,7,8,9,10,11,13a,14,14a,15,16,16a-hexadecahydrospiro[cyclopropa[e]pyrrolo[1,2-a][1,4]diazacyclopentadecine-2,3′-pyrano[2,3-c]quinolin]-6-yl]carbamate] | – | – | – | – | EC50 (HCV genotype 1b replicon; genotype 1b replicon, HCOOH salt): 28.3 nM; IC50 ([1]; IC50 [gt-1b] (nM), NS3/4A genotype 1b, enzyme 0.2 nM, HCOOH salt): 0.832 nM |
| COc1ccc2nc(C(F)F)c3c(c2c1)CC[C@]1(C[C@H]2C(=O)N[C@]4(C(=O)NS(=O)(=O)C5(C)CC5)C[C@H]4/C=C\CCCCC[C@H](NC(=O)O[C@H](C)C(C)C)C(=O)N2C1)O3 [Example 443, (2R)-3-methylbutan-2-yl [(2R,6S,12Z,13aS,14aR,16aS)-5′-(difluoromethyl)-9′-methoxy-14a-{[(1-methylcyclopropyl)sulfonyl]carbamoyl}-5,16-dioxo-1,1′,2′,5,6,7,8,9,10,11,13a,14,14a,15,16,16a-hexadecahydrospiro[cyclopropa[e]pyrrolo[1,2-a][1,4]diazacyclopentadecine-2,3′-pyrano[2,3-c]quinolin]-6-yl]carbamate] | – | – | – | – | EC50 (HCV genotype 1b replicon; HCV replicon, genotype 1b, K+ salt): 1.79 nM; IC50 ([1]; IC50 [gt-1b], NS3/4A protease TRF assay, genotype 1b enzyme 0.2 nM, K+ salt): 0.025 nM |
